According to publication PMC11721293 (JCI Insight, 2025):
pIC50: −log10 of the molar value. Values joined by “and” are separate entries in the source; they are usually repeats but may differ in a detail not shown here. Equal entries are not always repeated.

What was measured:
[1] = tested on: SARS-CoV-2-nLUC; assay type: cell-based
[2] = tested on: SARS-CoV-2-nLUC; assay: microbe, parasite or virus in culture; assay type: cell-based; conditions: GGTI vs DMSO; replicates
[3] = tested on: SARS-CoV-2-nLuc in cells overexpressing WT FTase; assay: microbe, parasite or virus in culture; assay type: cell-based; conditions: for luciferase activity (relative): WT
[4] = tested on: omicron BA4.6 variant; assay: Drug combination, omicron BA4.6 in VeroE6, qRT-PCR; assay type: cell-based, SARS-CoV-2; conditions: replicates
[5] = tested on: SARS-CoV-2-nLuc in cells overexpressing W106R mutant FTase; assay type: cell-based

CN(C)C(=O)COC(=O)Cc1ccc(OC(=O)c2ccc(NC(=N)N)cc2)cc1 [camostat]
infection signal (sheet S4F) [1]: 74.3368 and 81.9164 and 86.4071 and 85.3028 and 90.7155 and 94.6132 and 81.833 and 79.6415

Cc1nc[nH]c1CN1CCN(C(=O)N[C@@H](CC(C)C)C(=O)O)[C@@H](Cc2ccccc2)C1=O [GGTI2418]
signal relative to DMSO (sheet S7A) [2]: 90.3685 and 93.0121 and 91.627 and 90.3081

NC(=O)N1CCC(CC(=O)N2CCC([C@H]3c4ncc(Br)cc4CCc4cc(Cl)cc(Br)c43)CC2)CC1 [LNF, lonafarnib]
pIC50 ([3]; Severe acute respiratory syndrome coronavirus 2, Vero C1008, VeroE6 transfected with WT FNTB, 24 h): 5.96
luciferase activity (relative) ([3]; Log[LNF} mM (printed) 0.09691): 63.7112 and 63.9819 and 49.739 and 50.5313
luciferase activity (relative) ([3]; Log[LNF} mM (printed) 0.39794): 34.2371 and 34.2326 and 46.1621 and 47.4504
luciferase activity (relative) ([3]; Log[LNF} mM (printed) 0.69897): 15.3696 and 15.2721 and 16.4684 and 16.5029
luciferase activity (relative) ([3]; Log[LNF} mM (printed) 1): 6.188 and 5.457 and 5.008 and 4.944
luciferase activity (relative) ([3]; Log[LNF} mM (printed) -0.20412): 54.7411 and 54.7908 and 56.706 and 57.079
luciferase activity (relative) ([3]; Log[LNF} mM (printed) -0.50515): 62.6012 and 61.9491 and 68.0615 and 68.2295
luciferase activity (relative) ([3]; Log[LNF} mM (printed) -0.80618): 99.8257 and 98.9 and 84.2901 and 84.2134
luciferase activity (relative) ([3]; Log[LNF} mM (printed) -1.10721): 97.017 and 96.4383 and 93.6225 and 92.4394
S3E viral level relative to LNF 0/ NRTV 0 ([4]; LNF 1/ NRTV 0): 69.1766 and 49.5863 and 50.5202
S3D viral level relative to LNF 0/ RDV 0 ([4]; LNF 1/ RDV 0): 32.8373 and 32.7511 and 35.1123
S3E viral level relative to LNF 0/ NRTV 0 ([4]; LNF 10/ NRTV 0): 2.995 and 4.305 and 4.101
S3D viral level relative to LNF 0/ RDV 0 ([4]; LNF 10/ RDV 0): 2.77 and 3.103 and 2.149
fold less effective in cells expressing mutant FTase vs WT [5]: ~2 fold
pIC50 ([5]; read-out: Mut IC50): 5.66

CC(C)(C)[C@H](NC(=O)C(F)(F)F)C(=O)N1C[C@H]2[C@@H]([C@H]1C(=O)N[C@H](C#N)C[C@@H]1CCNC1=O)C2(C)C [NRTV, nirmatrelvir]
S3E viral level relative to LNF 0/ NRTV 0 ([4]; LNF 0/ NRTV 0.5): 47.9329 and 37.1942 and 53.3183
S3E viral level relative to LNF 0/ NRTV 0 ([4]; LNF 0/ NRTV 5): 1.354 and 1.072 and 1.497
